According to US20210172934A1, “SINGLE CELL CLONING APPROACHES FOR BIOLOGICAL STUDIES” (priority 2018, published 2021):

How the values were obtained:
[1] = test system: MT-2 WT and KO cell lines; experiment: In vitro sensitivity of MT-2 WT and KO cell lines to chemotherapy; assay type: cell-based, murine
Protocol: 4,000 […] cells were plated in quadruplicates in 96-well plates containing growth media. The next day, vehicle (PBS) or chemotherapy (doxorubicin: 0.33 nM-2.2 ∝M; paclitaxel: 14 μM-160 μM) was added to the plate and incubated for 72 hours. ATP levels were quantified as a surrogate measure for viability (CellTiter-Glo, Promega) using a luminometer (Perkin-Elmer).

[2] = test system: Met-1 cells; experiment: In vitro chemosensitivity study (CellTiter-Glo, ATP as surrogate for viability); assay type: cell-based, murine; conditions: 72 hours incubation; ATP levels (CellTiter-Glo)
Protocol: 4,000 Met-1 cells were plated in quadruplicates in 96-well plates containing growth media. The next day, vehicle (PBS) or chemotherapy (doxorubicin: 0.33 nM-2.2 ∝M; paclitaxel: 14 μM-160 μM) was added to the plate and incubated for 72 hours. ATP levels were quantified as a surrogate measure for viability (CellTiter-Glo, Promega) using a luminometer (Perkin-Elmer).
We next tested responsiveness of Met-1 mammary carcinoma to combination doxorubicin (A), cyclophosphamide (C), and paclitaxel (T) chemotherapy, AC-T, a standard of care chemotherapy regimen for breast cancer patients with ER-negative disease. We first tested the sensitivity of Met-1 cells to doxorubicin and paclitaxel in vitro and performed an initial in vivo experiment to identify a therapeutically relevant, well-tolerated combinatorial dose.

Structure (SMILES): COc1cccc2c1C(=O)c1c(O)c3c(c(O)c1C2=O)C[C@@](O)(C(=O)CO)C[C@@H]3O[C@H]1C[C@H](N)[C@H](O)[C@H](C)O1 [doxorubicin, Doxorubicin]
- (enhanced) sensitivity of MT-2 KO versus WT in vitro [1]: not apparent
- viability of Met-1 cells in vitro [2]: significantly decreased viability

Structure (SMILES): CC(=O)O[C@H]1C(=O)[C@@]2(C)[C@H]([C@H](OC(=O)c3ccccc3)[C@]3(O)C[C@H](OC(=O)[C@H](O)[C@@H](NC(=O)c4ccccc4)c4ccccc4)C(C)=C1C3(C)C)[C@]1(OC(C)=O)CO[C@@H]1C[C@@H]2O [paclitaxel]
- (enhanced) sensitivity of MT-2 KO versus WT in vitro [1]: not apparent
- viability of Met-1 cells in vitro [2]: significantly decreased viability
